Experimental data published in patent publication US5716971A, “Pyridine derivatives, their production and use” (Takeda Chemical Industries, Ltd., priority 1993, dated 1998).
Where two headings read alike, the source gives them in different places.

How the values were obtained:
specimen of rat aorta [1] = assay: Vasorelaxation activity in a specimen of rat aorta: contraction caused by TEA and BaCl2; settings: TEA (30-45 mM) and BaCl2 (0.3 mM) contraction, read-out: constriction inhibitory ratio
Protocol: Vasorelaxation activity in a specimen of rat aorta Effects on contraction caused by tetraethylammonium chloride (TEA) and barium chloride (BaCl2)
(§1) Male Wister rats (10 to 13 week old were employed for the experiment. After dehematization, the aorta was excised and a ring specimen (5 mm length) was prepared. The specimen was suspended in a bath filled with oxygenated (95% O2 -5%CO2) Krebs solution (36° C.). The ring specimen was fixed at one end and the other end was connected to a transducer (Nippon Koden) for recording tension to determine the tension. After a stabilization period of one hour, TEA (30-45 mM) and BaCl2 (0.3 mM) were added to the bath to cause vasoconstriction. After the constriction had reached a steady state (after about 15 minutes), a test compound was added to the bath and its relaxation activity was measured.

anesthetized dogs = assay: Action of increasing coronary blood flow in anesthetized dogs (administration into coronary artery); format: in vivo, dog; settings: injected into coronary artery, anesthetized Beagle dogs
Protocol: Action of increasing coronary blood flow in anesthetized dogs (Administration into coronary artery) Method: Beagle dogs (10 to 12 kg body weight) were anesthetized with pentobarbital and subjected to thoractomy under artificial respiration. A by-pass fitted with an electromagnetic flowmeter (Nippon Koden) was prepared between the left coronary artery and left carotid artery,and the volume of coronary blood flow was measured. […]
Maximal change rate against the value measured before the administration (% of basal flow) and the duration period [shown in terms of the time (T1/2) in which the activity is reduced to half] are shown in Table 67. As a result, it is apparent that the compounds of this invention show action of increasing coronary blood flow.

specimen of rat aorta [2] = assay: Vasorelaxation activity in a specimen of rat aorta: contraction caused by KCl; settings: read-out: constriction inhibitory ratio
Protocol: as §1
Vasorelaxation activity in a specimen of rat aorta Effects on contraction caused by potassium chloride (KCl)
The same experiment was conducted as in Experiment 1, excepting the use of KCl ([…]) instead of TEA and BaCl2

[3] = test system: Spontaneously hypertensive rats; assay: Hypotensive activity in rats (Tail Cuff Method), oral; format: in vivo; settings: Rattus norvegicus, SHR
Protocol: Hypotensive activity in rats (Tail Cuff Method)
Spontaneously hypertensive rats (SHR, male, 20 to 23 week old) were warmed up to 36° C. The blood pressure at the tail aorta was measured by the tail cuff method. The blood pressure was measured three times, i.e. before oral administration of the test compound, two hours after the administration and five hours after the administration. The test compound was orally administered in the state of a suspension in gum arabic.
Maximal, hypotensive effect against the blood pressure before the administration is shown as % pre. in Table 66. As a result, it is apparent that the compounds of this invention show hypotensive activity.

[4] = after 2 hours, read-out: Maximal hypotensive effect against blood pressure before administration (% pre.), after 2 hours
[5] = after 5 hours, read-out: Maximal hypotensive effect against blood pressure before administration (% pre.), after 5 hours

Row | SMILES | inhibition at 1 µM (specimen of rat aorta [1]) [%] | inhibition at 3 µM (specimen of rat aorta [1]) [%] | duration (T1/2): time in which the activity is reduced to half (anesthetized dogs; 30 ug/day) [min] | inhibition at 1 µM (specimen of rat aorta [2]) [%] | inhibition at 3 µM (specimen of rat aorta [2]) [%] | inhibition in vivo at 10 mg/kg [3, 4] [%] | inhibition in vivo at 10 mg/kg [3, 5] [%] | inhibition at 10 µM (specimen of rat aorta [1]; 10 μM) [%] | inhibition at 10 µM (specimen of rat aorta [2]; 10 μM) [%] | inhibition in vivo at 1 mg/kg [3, 4] [%] | inhibition in vivo at 1 mg/kg [3, 5] [%] | duration (T1/2): time in which the activity is reduced to half (anesthetized dogs; 10 μg/dog administration) [min]
1 | CC(C)(C)O/N=C(/c1cc(Br)ccc1O)c1ncccc1O [Compound 6, (Z)-2-(5-bromo-2-hydroxybenzoyl)-3-hydroxypyridine O-t-butyloxime] | 62 | 82 | 1.5 | 5 | 17 |  |  |  |  |  |  | 
2 | CC(C)(C)ON=C(c1cc(Cl)ccc1O)c1ncccc1O [Compound 14] | 71 | 90 | 1.6 | 2 | 11 |  |  |  |  |  |  | 
3 | CC(C)(C)O/N=C(/c1cc(Cl)c(Cl)cc1O)c1ncccc1O [Compound 32, (Z)-2-(4,5-dichloro-2-hydroxybenzoyl)-3-hydroxypyridine O-t-butyloxime] | 87 | 100 | 3.0 | -2 | 11 | 19 | 18 |  |  |  |  | 
4 | CC(C)(C)O/N=C(/c1cc(F)c(F)cc1O)c1ncccc1O [Compound 34, (Z)-2-(4,5-difluoro-2-hydroxybenzoyl)-3-hydroxypyridine O-t-butyloxime] | 54 | 59 | 3.7 | 4 | 18 | 27 | 10 |  |  |  |  | 
5 | CC(C)(C)O/N=C(/c1cc(Cl)c(F)cc1O)c1ncccc1O [Compound 36, (Z)-2-(5-chloro-4-fluoro-2-hydroxybenzoyl)-3-hydroxypyridine O-t-butyloxime] | 81 | 80 | 4.8 | 0 | 4 | 42 | 30 |  |  |  |  | 
6 | CC(C)(C)O/N=C(/c1cc(Br)c(Cl)cc1O)c1ncccc1O [Compound 38, (Z)-2-(5-bromo-4-chloro-2-hydroxybenzoyl)-3-hydroxypyridine O-t-butyloxime] | 92 | 100 | 4.7 | 0 | 1 | 29 | 13 |  |  |  |  | 
7 | CC(C)(C)O/N=C(/c1cc(F)c(Cl)cc1O)c1ncccc1O [Compound 40, (Z)-2-(4-chloro-5-fluoro-2-hydroxybenzoyl)-3-hydroxypyridine O-t-butyloxime] | 85 | 72 | 2.8 | 0 | 0 | 30 | 11 |  |  |  |  | 
8 | COc1cc(O)c(/C(=N/OC(C)(C)C)c2ncccc2O)cc1Br [Compound 43] |  | 63 | 1.7 |  | 0 |  |  | 75 | 5 |  |  | 
9 | CC(C)(C)O/N=C(/c1cc(F)c(Cl)cc1O)c1c(O)ccc[n+]1[O-] [Compound 56, (Z)-2-(4-chloro-5-fluoro-2-hydroxybenzoyl)-3-hydroxypyridine N-oxide O-t-butyloxime] | 100 |  | 27.3 |  |  | 51 | 42 |  |  |  |  | 
10 | CC(C)(C)O/N=C(/c1cc(F)c(F)cc1O)c1c(O)ccc[n+]1[O-] [Compound 59, (Z)-2-(4,5-difluoro-2-hydroxybenzoyl)-3-hydroxypyridine N-oxide O-t-butyloxime] | 6 | 100 | 15.1 |  |  | 45 | 54 |  |  | 22 | 10 | 
11 | Cc1cc(O)c(/C(=N/OC(C)(C)C)c2ncccc2O)cc1Br [Compound 61, (Z)-2-(5-bromo-2-hydroxy-4-methylbenzoyl)-3-hydroxypyridine O-t-butyloxime] | 54 | 100 | 2.0 | 4 | 7 |  |  |  |  |  |  | 
12 | CC(C)(C)O/N=C(/c1cc(Cl)c(Cl)cc1O)c1cccc[n+]1[O-] [Compound 95, (Z)-2-(4,5-dichloro-2-hydroxybenzoyl)pyridine N-oxide O-t-butyloxime] | 59 | 71 | 4.0 | 3 | 12 |  |  |  |  |  |  | 
13 | CC(C)(C)O/N=C(/c1cc(F)c(F)cc1O)c1cccc[n+]1[O-] [Compound 100, (Z)-2-(4,5-difluoro-2-hydroxybenzoyl)pyridine N-oxide O-t-butyloxime] | 52 | 100 | 3.3 | 4 | 11 |  |  |  |  |  |  | 
14 | CC(C)(C)O/N=C(/c1cc(Br)c(C#N)cc1O)c1ncccc1O [Compound 128, (Z)-2-(5-bromo-4-cyano-2-hydroxybenzoyl)-3-hydroxy pyridine O-t-butyloxime] | 100 |  | 6.2 |  |  |  |  |  |  |  |  | 
15 | CC(C)(C)O/N=C(/c1cc(Br)c(C#N)cc1O)c1c(O)ccc[n+]1[O-] [Compound 129, (Z)-2-(5-bromo-4-cyano-2-hydroxybenzoyl)-3-hydroxy pyridine N-oxide O-t-butyloxime] | 100 |  |  | 18 |  |  |  |  |  |  |  | 42.9
16 | CC(C)(C)O/N=C(/c1cc(C#N)c(Cl)cc1O)c1ncccc1O [Compound 130, (Z)-2-(4-chloro-5-cyano-2-hydroxybenzoyl)-3-hydroxy pyridine O-t-butyloxime] | 100 |  | 4.4 |  |  |  |  |  |  |  |  | 
17 | CC(C)(C)O/N=C(/c1cc(C#N)c(Cl)cc1O)c1c(O)ccc[n+]1[O-] [Compound 132, (Z)-2-(4-chloro-5-cyano-2-hydroxybenzoyl)-3-hydroxy pyridine N-oxide O-t-butyloxime] | 100 |  | 71.8 |  |  |  |  |  |  |  |  | 
18 | CC(C)(C)O/N=C(/c1cc(Cl)c(C#N)cc1O)c1ncccc1O [Compound 174, (Z)-2-(5-chloro-4-cyano-2-hydroxybenzoyl)-3-hydroxy pyridine O-t-butyloxime] | 100 |  |  |  |  |  |  |  |  |  |  | 4.4
19 | CC(C)(C)O/N=C(/c1cc(Cl)c(C#N)cc1O)c1c(O)ccc[n+]1[O-] [Compound 175, (Z)-2-(5-chloro-4-cyano-2-hydroxybenzoyl)-3-hydroxy pyridine N-oxide O-t-butyloxime] | 100 |  |  | 4 |  |  |  |  |  |  |  | 34.3
20 | CC(C)(C)O/N=C(/c1cc(F)c(C#N)cc1O)c1ncccc1O [Compound 176, (Z)-2-(4-cyano-5-fluoro-2-hydroxybenzoyl)-3-hydroxyoyridine O-t-butyloxime] | 100 |  |  |  |  |  |  |  |  |  |  | 1.8
21 | CC(C)(C)O/N=C(/c1cc(F)c(C#N)cc1O)c1c(O)ccc[n+]1[O-] [Compound 177, (Z)-2-(4-cyano-5-fluoro-2-hydroxybenzoyl)-3-hydroxy pyridine N-oxide O-t-butyloxime] | 50 | 100 |  | 0 | 0 |  |  |  |  |  |  | 9.8
